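Where inhibition never reached the appropriate level, the endpoint shown equals the highest concentration tested. Otherwise, values were interpolated linearly from a five-concentration, 48-hour dose response in 96-well plates. Definition used: TGI = concentration required for complete inhibition of growth.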

The test system of the first experiment is MCF7 breast. The experiment in a line: growth of human tumour cells (NCI), 48 h.
`CCCCCCc1cc2cc(-c3csc(CC#N)n3)c(=O)oc2cc1O`: the TGI was above 100 µM.

`CN1CCN(C2=NCCO2)CC1` came in with a TGI above 100 µM.

Turning to `O=C1CSC(c2ccc(Cl)cc2)N1c1ccc(Oc2ccc(Cl)cc2)c(Cl)c1` (stereo not given), the TGI was 44.1 µM.

On to `COC(=O)C([C@H](NC1(c2ccccc2)c2ccccc2-c2ccccc21)C(=O)OC)N(NC(=O)OCc1ccccc1)C(=O)OCc1ccccc1` (mixture of isomers), for which the TGI was above 100 µM.

Molecule `CC[C@@H]1CC[C@@H]2[C@H](CC[C@]3(C)[C@@H](OC(C)=O)CC[C@@H]23)[C@H]1COC(C)=O` had a TGI above 100 µM.

Molecule `Cc1ccc(N=NC(=Nc2ccccc2)c2ccc(N(CCC#N)CCC#N)cc2)cc1` gave a TGI of 79.2 µM.

`C[C@@H]1CC[C@]2(C(=O)O)CC[C@]3(C)C(=CC[C@@H]4[C@@]5(C)CC[C@H](O)C(C)(C)[C@@H]5CC[C@]43C)[C@@H]2[C@]1(C)O` had a TGI of 35.7 µM.

Regarding `CC(C)=CCc1c2c(c3occ(-c4ccc(O)cc4)c(=O)c3c1O)CC(C(C)(C)O)O2` (stereo not given), the TGI worked out at 28.3 µM.

For `Nc1nc(Cl)cc(NCC2(CO)CC(=O)C2)n1`, the TGI was above 100 µM.

The molecule `COc1ccc(C2CC(c3c(O)ccc4ccccc34)=NN2C(C)=O)cc1OC` (stereo not given) showed a TGI of 71.5 µM.

`O=C(N/N=C(/COc1ccc(Cl)cc1)N=Cc1ccncc1)c1ccncc1`: the TGI is above 100 µM.

In the case of `COc1ccc2cc(NC(=O)N/N=C\c3ccc([N+](=O)[O-])cc3)ccc2c1`, the TGI is above 100 µM.

In turn, `NC(N)=N/N=C/c1c(-c2ccc(N)cc2)nc2sccn12` came in with a TGI above 100 µM.

`COc1cc(Br)cc2cc(-c3cn4ccsc4n3)c(=O)oc12` yielded a TGI of 38.6 µM.

For the molecule `COc1ccc(N/N=C2\CCOc3ccc(C)cc3C2=O)cc1`, the TGI is above 100 µM.

In the case of `COC(=O)C1SC(SC)=NC12c1ccccc1Nc1ccccc12` (stereo not given), the TGI turned out to be 82.7 µM.

`CCOC(=O)CSc1c(C(=O)OCC)c(=O)n(-c2ccccc2)c(=S)n1-c1ccccc1` showed a TGI above 100 µM.

`C=CC1(C)CCC2C(=CCC3C2(C)CC(O)C(O)C3(C)COC2OC(C(=O)O)C(O)C(O)C2O)C1` (stereo not given) (tested in a mixture with another compound) gave a TGI above 100 µM.

`C=C1C(=O)O[C@@H]2C(=O)[C@@H](C)CCC/C(C)=C/CC[C@@]3(C)O[C@@H]3C[C@@H]12`: the TGI was above 100 µM.

In turn, `Cc1ccccc1C(=O)N1CCc2c([nH]c3ccccc23)C1` gave a TGI of 51.8 µM.

For the molecule `Cc1nc2n(c1/C=C1/C(=O)Nc3cccc(Cl)c31)CCS2`, the TGI was above 100 µM.

For the molecule `CCOC(=O)C(SCCO)C(C(=O)OCC)n1cnc2c(=O)[nH]c(NC(C)=O)nc21` (stereo not given), the TGI is above 100 µM.

Molecule `Cc1ccc([N+](=O)[O-])cc1NC1=NCCO1` gave a TGI above 100 µM.

As to `N#CCCC1C(C#N)C2(Cl)CC1(Cl)C(Cl)=C2Cl` (stereo not given), the TGI is above 10 µM.

With `CC(C)(C)N1CSC(=S)N(Cc2ccco2)C1`, the TGI worked out at 14.3 µM.

As to `O=c1c2cc([N+](=O)[O-])cnc2sn1-c1ccc([N+](=O)[O-])cc1`, the TGI is above 100 µM.

Another experiment relates to HCT-15 colon. The experiment can be described thus: growth of human tumour cells (NCI), 48 h.
As for `CCCCCCc1cc2cc(-c3csc(CC#N)n3)c(=O)oc2cc1O`, the TGI is above 100 µM.

As for `CN1CCN(C2=NCCO2)CC1`, the TGI was above 100 µM.

Molecule `O=C1CSC(c2ccc(Cl)cc2)N1c1ccc(Oc2ccc(Cl)cc2)c(Cl)c1` (stereo not given) displayed a TGI of 29.5 µM.

In the case of `COC(=O)C([C@H](NC1(c2ccccc2)c2ccccc2-c2ccccc21)C(=O)OC)N(NC(=O)OCc1ccccc1)C(=O)OCc1ccccc1` (mixture of isomers), the TGI is above 100 µM.

Regarding `CC[C@@H]1CC[C@@H]2[C@H](CC[C@]3(C)[C@@H](OC(C)=O)CC[C@@H]23)[C@H]1COC(C)=O`, the TGI stood at 56 µM.

For `Cc1ccc(N=NC(=Nc2ccccc2)c2ccc(N(CCC#N)CCC#N)cc2)cc1`, the TGI was above 100 µM.

Molecule `C[C@@H]1CC[C@]2(C(=O)O)CC[C@]3(C)C(=CC[C@@H]4[C@@]5(C)CC[C@H](O)C(C)(C)[C@@H]5CC[C@]43C)[C@@H]2[C@]1(C)O` displayed a TGI of 24.2 µM.

`CC(C)=CCc1c2c(c3occ(-c4ccc(O)cc4)c(=O)c3c1O)CC(C(C)(C)O)O2` (stereo not given) yielded a TGI of 30 µM.

`Nc1nc(Cl)cc(NCC2(CO)CC(=O)C2)n1` came in with a TGI above 100 µM.

Molecule `COc1ccc(C2CC(c3c(O)ccc4ccccc34)=NN2C(C)=O)cc1OC` (stereo not given) gave a TGI above 100 µM.

`O=C(N/N=C(/COc1ccc(Cl)cc1)N=Cc1ccncc1)c1ccncc1` showed a TGI above 100 µM.

With `COc1ccc2cc(NC(=O)N/N=C\c3ccc([N+](=O)[O-])cc3)ccc2c1`, the TGI was above 100 µM.

`NC(N)=N/N=C/c1c(-c2ccc(N)cc2)nc2sccn12` showed a TGI above 100 µM.

Molecule `COc1cc(Br)cc2cc(-c3cn4ccsc4n3)c(=O)oc12` yielded a TGI above 100 µM.

In turn, `COc1ccc(N/N=C2\CCOc3ccc(C)cc3C2=O)cc1` gave a TGI of 48.7 µM.

`COC(=O)C1SC(SC)=NC12c1ccccc1Nc1ccccc12` (stereo not given): the TGI was above 100 µM.

For the molecule `CCOC(=O)CSc1c(C(=O)OCC)c(=O)n(-c2ccccc2)c(=S)n1-c1ccccc1`, the TGI is above 100 µM.

Take `C=CC1(C)CCC2C(=CCC3C2(C)CC(O)C(O)C3(C)COC2OC(C(=O)O)C(O)C(O)C2O)C1` (stereo not given) (tested in a mixture with another compound): the TGI is above 100 µM.

`C=C1C(=O)O[C@@H]2C(=O)[C@@H](C)CCC/C(C)=C/CC[C@@]3(C)O[C@@H]3C[C@@H]12` returned a TGI of 44 µM.

With `Cc1ccccc1C(=O)N1CCc2c([nH]c3ccccc23)C1`, the TGI was 62.1 µM.

In the case of `Cc1nc2n(c1/C=C1/C(=O)Nc3cccc(Cl)c31)CCS2`, the TGI was above 100 µM.

For `CCOC(=O)C(SCCO)C(C(=O)OCC)n1cnc2c(=O)[nH]c(NC(C)=O)nc21` (stereo not given), the TGI is above 100 µM.

For `Cc1ccc([N+](=O)[O-])cc1NC1=NCCO1`, the TGI is above 100 µM.

For `N#CCCC1C(C#N)C2(Cl)CC1(Cl)C(Cl)=C2Cl` (stereo not given), the TGI is above 10 µM.

As to `CC(C)(C)N1CSC(=S)N(Cc2ccco2)C1`, the TGI is 10.6 µM.

In turn, `O=c1c2cc([N+](=O)[O-])cnc2sn1-c1ccc([N+](=O)[O-])cc1` showed a TGI of 87.5 µM.

The test system of the next experiment is SK-OV-3 ovarian. The experiment can be described thus: growth of human tumour cells (NCI), 48 h.
Molecule `CCCCCCc1cc2cc(-c3csc(CC#N)n3)c(=O)oc2cc1O` registered a TGI of 97.6 µM.

Regarding `CN1CCN(C2=NCCO2)CC1`, the TGI was above 100 µM.

With `O=C1CSC(c2ccc(Cl)cc2)N1c1ccc(Oc2ccc(Cl)cc2)c(Cl)c1` (stereo not given), the TGI worked out at 31.9 µM.

The molecule `COC(=O)C([C@H](NC1(c2ccccc2)c2ccccc2-c2ccccc21)C(=O)OC)N(NC(=O)OCc1ccccc1)C(=O)OCc1ccccc1` (mixture of isomers) gave a TGI above 100 µM.

As to `CC[C@@H]1CC[C@@H]2[C@H](CC[C@]3(C)[C@@H](OC(C)=O)CC[C@@H]23)[C@H]1COC(C)=O`, the TGI was above 100 µM.

Molecule `Cc1ccc(N=NC(=Nc2ccccc2)c2ccc(N(CCC#N)CCC#N)cc2)cc1` yielded a TGI above 100 µM.

`C[C@@H]1CC[C@]2(C(=O)O)CC[C@]3(C)C(=CC[C@@H]4[C@@]5(C)CC[C@H](O)C(C)(C)[C@@H]5CC[C@]43C)[C@@H]2[C@]1(C)O` came in with a TGI of 31.8 µM.

Consider `CC(C)=CCc1c2c(c3occ(-c4ccc(O)cc4)c(=O)c3c1O)CC(C(C)(C)O)O2` (stereo not given), for which the TGI is 33 µM.

For the molecule `Nc1nc(Cl)cc(NCC2(CO)CC(=O)C2)n1`, the TGI is above 100 µM.

Regarding `COc1ccc(C2CC(c3c(O)ccc4ccccc34)=NN2C(C)=O)cc1OC` (stereo not given), the TGI is above 100 µM.

Molecule `O=C(N/N=C(/COc1ccc(Cl)cc1)N=Cc1ccncc1)c1ccncc1` returned a TGI above 100 µM.

The molecule `COc1ccc2cc(NC(=O)N/N=C\c3ccc([N+](=O)[O-])cc3)ccc2c1` yielded a TGI above 100 µM.

In the case of `NC(N)=N/N=C/c1c(-c2ccc(N)cc2)nc2sccn12`, the TGI came to 64 µM.

For the origin of these results see PubChem BioAssay (NCI).
